Measurements from patent US9884818B2, “Sulphamoylpyrrolamide derivatives and the use thereof as medicaments for the treatment of hepatitis B” (Janssen Sciences Ireland UC, priority 2013, dated 2018).

What was measured:
HBV [1] = test: Anti-HBV activity, HepG2.117 inducibly HBV producing cell line (Tet-off), intracellular HBV DNA by realtime PCR; format: cell-based; conditions: Hepatitis B virus, HepG2.117, 72 h, HepG2.117 cells, 3 days of treatment, intracellular HBV DNA; read-out: HepG2 117 EC50
HBV [2] = test: Anti-HBV activity, HepG2.2.15 stable transfected cell line, HBV DNA from secreted virions by realtime PCR; format: cell-based; conditions: Hepatitis B virus, HepG2.2.15, 144 h, HepG2.2.15 cells, 6 days of treatment, HBV DNA from secreted virions; read-out: HepG2 2.15 EC50
[3] = Cytotoxicity in HepG2 cells, Resazurin viability assay; conditions: human, HepG2 cells, HepG2 4 days CC50 (μM), incubated for 4 days, Resazurin assay

Compound: Cc1cc(NC(=O)c2cc(S(=O)(=O)N[C@H](C)CO)cn2C)cc(F)c1F [Compound 36, N-(3,4-difluoro-5-methyl-phenyl)-4-[[(1R)-2-hydroxy-1-methyl-ethyl]-sulfamoyl]-1-methyl-pyrrole-2-carboxamide]
- EC50 (HBV [1]): 40 nM
- EC50 (HBV [2]): 80 nM
- CC50 at 4 days [3]: > 25 µM

Compound: Cn1cc(S(=O)(=O)NC(C)(C)C)c(F)c1C(=O)Nc1ccc(F)c(Cl)c1F [Compound 212, 4-(tert-Butylsulfamoyl)-N-(3-chloro-2,4-difluorophenyl)-3-fluoro-1-methyl-1H-pyrrole-2-carboxamide]
- EC50 (HBV [1]): 40 nM
- EC50 (HBV [2]): 90 nM
- CC50 at 4 days [3]: > 25 µM

Compound: CCC(C)(NS(=O)(=O)c1cc(C(=O)Nc2ccc(F)c(Cl)c2F)n(C)c1)C(F)(F)F (stereo not drawn) [Compound 257, N-(3-chloro-2,4-difluoro-phenyl)-1-methyl-4-{[1-methyl-1-(trifluoro-methyl)propyl]sulfamoyl}-1H-pyrrole-2-carboxamide]
- EC50 (HBV [1]): 90 nM
- EC50 (HBV [2]): 80 nM
- CC50 at 4 days [3]: > 25 µM

Compound: C[C@@H](NS(=O)(=O)c1cn(C)c(C(=O)Nc2ccc(F)c(C(F)(F)F)c2)c1Cl)C(F)(F)F [Compound 274, 3-chloro-N-[4-fluoro-3-(trifluoromethyl)phenyl]-1-methyl-4-[[(1R)-2,2,2-trifluoro-1-methyl-ethyl]sulfamoyl]pyrrole-2-carboxamide]
- EC50 (HBV [1]): 40 nM
- EC50 (HBV [2]): 20 nM
- CC50 at 4 days [3]: 19.4 µM

Compound: Cc1cc(NC(=O)c2cc(S(=O)(=O)NC3(CC#N)COC3)cn2C)ccc1F [Compound 17, 4-[[3-(cyanomethyl)oxetan-3-yl]sulfamoyl]-N-(4-fluoro-3-methyl-phenyl)-1-methyl-pyrrole-2-carboxamide]
- EC50 (HBV [1]): 20 nM
- EC50 (HBV [2]): 30 nM
- CC50 at 4 days [3]: > 25 µM

Compound: Cn1cc(S(=O)(=O)NC2(C)COC2)cc1C(=O)Nc1cc(F)cc(C(F)(F)F)c1 [Compound 45, N-[3-fluoro-5-(trifluoromethyl)phenyl]-1-methyl-4-[(3-methyloxetan-3-yl)sulfamoyl]pyrrole-2-carboxamide]
- EC50 (HBV [1]): 340 nM
- EC50 (HBV [2]): 320 nM
- CC50 at 4 days [3]: > 25 µM

Compound: CC(C)NS(=O)(=O)c1cn(C)c(C(=O)Nc2ccc(F)c(C#N)c2)c1F [Compound 171, N-(3-Cyano-4-fluorophenyl)-3-fluoro-1-methyl-4-[(1-methylethyl)sulfamoyl]-1H-pyrrole-2-carboxamide]
- EC50 (HBV [1]): 20 nM
- EC50 (HBV [2]): 20 nM
- CC50 at 4 days [3]: > 25 µM

Compound: Cn1cc(S(=O)(=O)NC2(C)COC2)cc1C(=O)Nc1cc(F)c(F)c(Cl)c1 [Compound 59, N-(3-chloro-4,5-difluoro-phenyl)-1-methyl-4-[(3-methyloxetan-3-yl)-sulfamoyl]pyrrole-2-carboxamide]
- EC50 (HBV [1]): 30 nM
- EC50 (HBV [2]): 30 nM
- CC50 at 4 days [3]: > 25 µM

Compound: Cn1cc(S(=O)(=O)NC(C)(C)C)cc1C(=O)Nc1ccc(F)c(OC(F)(F)F)c1 [Compound 98, 4-(tert-Butylsulfamoyl)-N-[4-fluoro-3-(trifluoromethoxy)phenyl]-1-methyl-1H-pyrrole-2-carboxamide]
- EC50 (HBV [1]): 540 nM
- EC50 (HBV [2]): 810 nM
- CC50 at 4 days [3]: > 25 µM

Compound: Cc1c(S(=O)(=O)NC2(C)COC2)cn(C)c1C(=O)Nc1ccc(F)c(Cl)c1 [Compound 149, N-(3-Chloro-4-fluorophenyl)-1,3-dimethyl-4-[(3-methyloxetan-3-yl)sulfamoyl]-1H-pyrrole-2-carboxamide]
- EC50 (HBV [1]): 30 nM
- EC50 (HBV [2]): 40 nM
- CC50 at 4 days [3]: > 25 µM

Compound: Cn1cc(S(=O)(=O)NC(C)(C)C)cc1C(=O)Nc1cc(F)c(F)c(Cl)c1 [Compound 58, 4-(tert-butylsulfamoyl)-N-(3-chloro-4,5-difluoro-phenyl)-1-methyl-pyrrole-2-carboxamide]
- EC50 (HBV [1]): 60 nM
- EC50 (HBV [2]): 90 nM
- CC50 at 4 days [3]: > 25 µM

Compound: Cn1cc(S(=O)(=O)NC(C)(C)C)c(F)c1C(=O)Nc1ccc(F)c(F)c1 [Compound 211, 4-(tert-Butylsulfamoyl)-N-(3,4-difluorophenyl)-3-fluoro-1-methyl-1H-pyrrole-2-carboxamide]
- EC50 (HBV [1]): 40 nM
- EC50 (HBV [2]): 40 nM
- CC50 at 4 days [3]: > 25 µM

Compound: Cc1cc(NC(=O)c2cc(S(=O)(=O)NC3(C)COC3)cn2C)cc(C(F)(F)F)c1F [Compound 79, N-[4-Fluoro-3-methyl-5-(trifluoromethyl)phenyl]-1-methyl-4-[(3-methyloxetan-3-yl)sulfamoyl]-1H-pyrrole-2-carboxamide]
- EC50 (HBV [1]): 460 nM
- EC50 (HBV [2]): 530 nM
- CC50 at 4 days [3]: > 25 µM

Compound: Cn1cc(S(=O)(=O)NC2(C)COC2)c(F)c1C(=O)Nc1ccc(F)c(C(F)F)c1 [Compound 107, N-[3-(Difluoromethyl)-4-fluorophenyl]-3-fluoro-1-methyl-4-[(3-methyloxetan-3-yl)sulfamoyl]-1H-pyrrole-2-carboxamide]
- EC50 (HBV [1]): 10 nM
- EC50 (HBV [2]): 10 nM
- CC50 at 4 days [3]: > 25 µM

Compound: Cn1cc(S(=O)(=O)NC(C)(C)C)cc1C(=O)Nc1cccc(C#N)c1F [Compound 192, 4-(tert-Butylsulfamoyl)-N-(3-cyano-2-fluorophenyl)-1-methyl-1H-pyrrole-2-carboxamide]
- EC50 (HBV [1]): 190 nM
- EC50 (HBV [2]): 570 nM
- CC50 at 4 days [3]: > 25 µM

Compound: Cc1c(S(=O)(=O)N[C@H](C)C(F)(F)F)cn(C)c1C(=O)Nc1ccc(F)c(Cl)c1 [Compound 145, N-(3-Chloro-4-fluorophenyl)-1,3-dimethyl-4-{[(1R)-2,2,2-trifluoro-1-methylethyl]sulfamoyl}-1H-pyrrole-2-carboxamide]
- EC50 (HBV [1]): 30 nM
- EC50 (HBV [2]): 40 nM
- CC50 at 4 days [3]: > 25 µM

Compound: Cn1cc(S(=O)(=O)NC2(C)COC2)c(F)c1C(=O)Nc1ccc(F)c(Br)c1 [Compound 106, N-(3-Bromo-4-fluorophenyl)-3-fluoro-1-methyl-4-[(3-methyloxetan-3-yl)sulfamoyl]-1H-pyrrole-2-carboxamide]
- EC50 (HBV [1]): 10 nM
- EC50 (HBV [2]): 10 nM
- CC50 at 4 days [3]: > 25 µM

Compound: Cc1cc(NC(=O)c2cc(S(=O)(=O)NC(C)(C)C)cn2C)ccc1F [Compound 16, 4-(tert-butylsulfamoyl)-N-(4-fluoro-3-methyl-phenyl)-1-methyl-pyrrole-2-carboxamide]
- EC50 (HBV [1]): 30 nM
- EC50 (HBV [2]): 60 nM
- CC50 at 4 days [3]: > 25 µM

Compound: COC(=O)C(C)(C)NS(=O)(=O)c1cc(C(=O)Nc2ccc(F)c(C)c2)n(C)c1 [Compound 49, methyl 2-[[5-[(4-fluoro-3-methyl-phenyl)carbamoyl]-1-methyl-pyrrol-3-yl]sulfonylamino]-2-methyl-propanoate]
- EC50 (HBV [1]): 20 nM
- EC50 (HBV [2]): 70 nM
- CC50 at 4 days [3]: > 25 µM

Compound: Cn1cc(S(=O)(=O)N[C@H]2C[C@@H](O)C2)cc1C(=O)Nc1ccc(F)c(F)c1 [Compound 25, N-(3,4-difluorophenyl)-4-[(3-hydroxycyclobutyl)sulfamoyl]-1-methyl-pyrrole-2-carboxamide]
- EC50 (HBV [1]): 230 nM
- EC50 (HBV [2]): 340 nM
- CC50 at 4 days [3]: > 25 µM

Compound: CC[C@@H](C)NS(=O)(=O)c1cc(C(=O)Nc2ccc(F)c(C)c2)n(C)c1 [Compound 6, N-(4-fluoro-3-methyl-phenyl)-1-methyl-4-[[(1R)-1-methylpropyl]-sulfamoyl]pyrrole-2-carboxamide]
- EC50 (HBV [1]): 20 nM
- EC50 (HBV [2]): 20 nM
- CC50 at 4 days [3]: > 25 µM

Compound: CC[C@@H](NS(=O)(=O)c1cc(C(=O)Nc2ccc(F)c(Cl)c2F)n(C)c1)C(F)(F)F [Compound 265, N-(3-chloro-2,4-difluoro-phenyl)-1-methyl-4-{[(1R)-1-(trifluoro-methyl)propyl]sulfamoyl}-1H-pyrrole-2-carboxamide]
- EC50 (HBV [1]): 30 nM
- EC50 (HBV [2]): 10 nM
- CC50 at 4 days [3]: > 25 µM

Compound: Cn1cc(S(=O)(=O)NCC(F)F)cc1C(=O)Nc1cc(F)c(F)c(Cl)c1 [Compound 130, N-(3-Chloro-4,5-difluorophenyl)-4-[(2,2-difluoroethyl)sulfamoyl]-1-methyl-1H-pyrrole-2-carboxamide]
- EC50 (HBV [1]): 150 nM
- EC50 (HBV [2]): 90 nM
- CC50 at 4 days [3]: > 25 µM

Compound: Cc1cc(NC(=O)c2cc(S(=O)(=O)NC(C)C)cn2C)cc(F)c1F [Compound 33, N-(3,4-difluoro-5-methyl-phenyl)-4-(isopropylsulfamoyl)-1-methyl-pyrrole-2-carboxamide]
- EC50 (HBV [1]): 40 nM
- EC50 (HBV [2]): 30 nM
- CC50 at 4 days [3]: > 25 µM

Compound: C[C@@H](NS(=O)(=O)c1cn(C)c(C(=O)Nc2ccc(F)c(C(F)F)c2F)c1F)C(F)(F)F [Compound 287, N-[3-(difluoromethyl)-2,4-difluoro-phenyl]-3-fluoro-1-methyl-4-[[(1R)-2,2,2-trifluoro-1-methyl-ethyl]sulfamoyl]pyrrole-2-carboxamide]
- EC50 (HBV [1]): 5 nM
- EC50 (HBV [2]): 4 nM
- CC50 at 4 days [3]: > 25 µM

Compound: Cc1c(F)ccc(NC(=O)c2cc(S(=O)(=O)NC3(C)COC3)cn2C)c1F [Compound 85, N-(2,4-Difluoro-3-methylphenyl)-1-methyl-4-[(3-methyloxetan-3-yl)sulfamoyl]-1H-pyrrole-2-carboxamide]
- EC50 (HBV [1]): 50 nM
- EC50 (HBV [2]): 30 nM
- CC50 at 4 days [3]: > 25 µM

Compound: C[C@@H](NS(=O)(=O)c1cn(C)c(C(=O)Nc2ccc(F)c(Cl)c2F)c1Cl)C(F)(F)F [Compound 218, 3-Chloro-N-(3-chloro-2,4-difluorophenyl)-1-methyl-4-{[(1R)-2,2,2-trifluoro-1-methylethyl]sulfamoyl}-1H-pyrrole-2-carboxamide]
- EC50 (HBV [1]): 7 nM
- EC50 (HBV [2]): 9 nM
- CC50 at 4 days [3]: > 25 µM

Compound: C[C@@H](NS(=O)(=O)c1cc(C(=O)Nc2cccc(C#N)c2F)n(C)c1)C(F)(F)F [Compound 160, N-(3-Cyano-2-fluorophenyl)-1-methyl-4-{[(1R)-2,2,2-trifluoro-1-methylethyl]sulfamoyl}-1H-pyrrole-2-carboxamide]
- EC50 (HBV [1]): 130 nM
- EC50 (HBV [2]): 160 nM
- CC50 at 4 days [3]: > 25 µM

Compound: Cn1cc(S(=O)(=O)NC2(C)COC2)cc1C(=O)Nc1cc(F)c(F)c(F)c1 [Compound 27, 1-methyl-4-[(3-methyloxetan-3-yl)sulfamoyl]-N-(3,4,5-trifluorophenyl)pyrrole-2-carboxamide]
- EC50 (HBV [1]): 60 nM
- EC50 (HBV [2]): 40 nM
- CC50 at 4 days [3]: > 25 µM
